According to US20240307220A1, “Combination Therapy to Treat Temperature Sensitive Mutant Tumors” (H. LEE MOFFITT CANCER CENTER AND RESEARCH INSTITUTE INC., priority 2021, published 2024):

Key:
[1] = test system: H1299 cells stably expressing p53 ts mutants; experiment: Western blot of p53 target gene induction in H1299 stably expressing ts p53 mutants, with CPT; assay type: cell-based, human
Protocol: (§1) FIGS. 1B and 1C show representative p53 ts mutants stably expressed in H1299 cells tested for induction of target gene expression after 20 hrs at 32° C. CPT (0.5 μM for 20 hrs) was added when cells were shifted to 32° C. […] P53 binding to PUMA promoter was determined by ChIP. The results are average of 3 experiments (mean±SD).
FIGS. 10A to 10F show induction of endogenous targets by ts p53 mutants. P53 ts mutants were stably expressed in H1299 cells using lentivirus vector. Cells were tested for induction of target gene expression after 20 hrs at 32° C. by Western blot. CPT (0.5 μM for 20 hrs) was added when cells were shifted to 32° C. A138V was used as a benchmark to facilitate comparison between gels.
Western blot. Cells were lysed in lysis buffer (50 mM Tris-HCl pH 8.0, 5 mM EDTA, 150 mM NaCl, 0.5% Nonidet P-40, 1×protease inhibitor cocktail) and centrifuged for 10 minutes at 14,000×g, and the insoluble debris was discarded. Cell lysate (10-50 µg of protein) was fractionated by SDS-PAGE and transferred to Immobilion P filters (Millipore). The filter was blocked for 1 hr with phosphate buffered saline (PBS) containing 5% non-fat dry milk and 0.1% Tween 20, incubated with primary and secondary antibodies, and the filter was developed using SuperSignal reagent (Thermo Scientific). MDM2 was detected using monoclonal antibody 3G9 produced in house. Other markers were detected using commercial antibodies: Actin (Sigma A5441), p53-DO1 (BD Pharmingen #554293), p21 (BD Pharmingen #556430), PUMA (CellSignaling #12450), PARP (BD Pharmingen #556362), p53 pSer15 (CellSignaling #9284), p53 acetyl-Lys382 (CellSignaling #2525).
Validation of ts p53 mutants from cancer. We selected 17 most frequently observed ts mutants for validation in p53-null H1299 cells. These ts mutants together represent 9.6% (2,358/24,679) of tumors with p53 missense mutations (Table 3), or 64% (2,358/3,658) of tumors with ts p53 mutations. The ability of these mutants to activate the p21 and PUMA promoters at 32° C. were confirmed in reporter assays after transient expression (FIG. 2A, FIG. 8A-8C). […]

[2] = test system: P53 binding to PUMA promoter; experiment: ChIP of p53 binding to PUMA promoter in H1299 stably expressing p53 mutants; assay type: cell-based, human; conditions: 0.5 μM CPT at 32° C. for 20 hrs
Protocol: as §1
Chromatin immunoprecipitation (ChIP). ChIP assay was performed using standard procedure. Crosslinked p53-DNA complexes were immunoprecipitated with DO-1 antibody. Samples were subjected to SYBR Green real-time PCR analysis using forward and reverse primers for the p53 binding sites in the p21 promoter ([…] (SEQ ID NO:7) and […] (SEQ ID NO:8)), and PUMA promoter ([…] (SEQ ID NO:9) and […] (SEQ ID NO:10)).

GA10 tumors = experiment: GA10 subcutaneous tumor xenografts in nude mice treated with CPT with or without hypothermia; assay type: in vivo
Protocol: FIGS. 7A to 7E show hypothermia cooperates with chemotherapy to induce regression of tumors expressing ts p53. […] CPT (1.5 mg/kg) was given at the beginning of each hypothermia cycle. Average size of tumors was plotted over time (mean±SD). FIG. 7B contains pictures of a GA10 partial response tumor before and after treatment. FIG. 7C is a waterfall plot showing combined results of 3 experiments. Tumors with durable remission are marked as “cured”. FIG. 7D contains individual growth curves of representative GA10 tumors from FIG. 7A that achieved durable remission after treatment. FIG. 7E contains individual growth curves of GA10 tumors from FIG. 7A that relapsed and received re-treatment.
FIGS. 14A to 14D show effect of low-dose CPT treatment alone on tumor growth. […] Tumor growth at 37° C. (without hypothermia treatment) was determined at indicated time points. […] Tumor growth at 37° C. (without hypothermia treatment) was determined at indicated time points. […] When tumors reached approximately 100 mm^3 the mice were injected i.p. with 1.5 mg/kg CPT every 3 days. Tumor growth was monitored over time (mean±SD). […] Average size of tumors was plotted over time.
Animal experiment. Animal experiments were reviewed and approved by the University of South Florida IACUC. Athymic female nude mice (6-week old, Athymic Nude-Foxn1nu, Envigo) were injected subcutaneously with 0.1 ml 1:1 slurry of Matrigel (VWR 47743-715) and 1×10^7 cells in PBS at each site. The inoculated mice were housed in a cabinet set to 28° C. (ARIA BIO-C36 ventilated cabinet, TECNIPLAST) to ensure that tumors develop at ˜37° C. Each mouse received injections at 2 sites, tumors formed at >80% of sites injected with GA10 cells. N^6-cyclohexyladenosine (CHA, Sigma C9901) was dissolved at 20 mg/ml in 25% (2-Hydroxypropyl)-β-cyclodextrin (w/v, Sigma H107) and heated at 65° C. for 10 min to ensure dissolution. Camptothecin (CPT, Santa Cruz Biotechnology sc-200871B) was freshly dissolved in 1 N NaOH, diluted to ˜0.5 mg/ml with saline, and adjusted to pH10 using HCl. To induce hypothermia, 0.2 ml saline+10% glucose containing CHA and CPT was administered by intra peritoneal injection to provide a CHA dosage of 10 mg/kg body weight and CPT (when indicated) dosage of 1.5 mg/kg body weight. The mice were kept in the 28° C. cabinet and monitored using infrared thermal imaging camera (FLIR ONE Pro, FLIR® Systems, Inc.) to verify that body temperature was maintained at ˜32° C. A second injection of CHA (10 mg/kg) in 0.4 ml saline+10% glucose was given after 10 hours to maintain hypothermia for ˜24 hours. A third injection of CHA (10 mg/kg) in 0.4 ml saline+10% glucose was given after 10 hours to maintain hypothermia for ˜32 hours. […]

CC[C@@]1(O)C(=O)OCc2c1cc1n(c2=O)Cc2cc3ccccc3nc2-1 [CPT, Camptothecin]
ts p53 Ser15 phosphorylation and K382 acetylation ([1]; CPT 0.5 μM for 20 hrs at 32° C., Western blot): stimulated
PUMA expression in the absence of p53 ([1]; H1299 without p53, CPT 0.5 μM for 20 hrs): modestly stimulated PUMA expression
induction of endogenous PUMA ([1]; stably transfected H1299 with ts mutants, CPT 0.5 μM for 20 hrs at 32° C., Western blot): could be stimulated
PUMA promoter binding by the ts mutants (ChIP) [2]: further stimulated the binding
GA10 tumor growth, CPT alone (GA10 tumors; 1.5 mg/kg CPT i.p., 37° C., no hypothermia): modestly inhibited GA10 tumor growth at 37 °C but did not cause shrinkage
response to CPT, GA10 versus GA10-p53KO tumors (GA10 tumors; 1.5 mg/kg CPT, 37° C. body temperature (p53 inactive)): no difference in response to CPT
GA10 tumor response to hypothermia+CPT combination (GA10 tumors; CPT 1.5 mg/kg, 32° C. hypothermia, 32 hr×5 format): significant regression
GA10 tumors that did not relapse (GA10 tumors; hypothermia+CPT, 32 hr×5 format, 50-day observation period after stopping treatment (12/37)): 32%
